For orientation: Kd means the free concentration of one partner at which half of the binding sites on the other are occupied at equilibrium, for simple one-to-one binding.

The source of these data is US20230357233A1, “HETEROARYL COMPOUNDS, PREPARATION METHODS AND USES THEREOF” (INVENTISBIO CO., LTD., priority 2020, published 2023).

Test [1] deals with recombinant human KRAS^G12D protein (Homo sapiens, UniProt P01116, G12D). In words: Temperature-dependent Fluorescence (TdF) KRAS^G12D protein binding assay. Conditions: 6 μM KRAS^G12D Protein, 10 μM compound, Sypro Orange; Kd calculated from fluorescent shift. The protocol: The TdF assay was conducted in the 96-well-based real-time fluorescence plate reader (ABI 7500 or Roche LightCycler 480). Fluorescent dye Sypro Orange (Sigma) was used to monitor the protein folding-unfolding transition. Protein-compound binding was gauged by the shift in the unfolding transition temperature (ΔTm) acquired with and without compound. […] The sample plate was heated from 30° C. to 95° C. with a thermal ramping rate of […], taking a fluorescence reading every 0.4° C. using a CY3 channel matching the excitation and emission wavelengths of Sypro Orange (λ ex 470 nm; λ em 570 nm). Binding affinity (Kd value) was calculated based on the degree of fluorescent shift of the protein with and without compound.

A further test has as its target Ba/F3_KRAS^G12D cells (Homo sapiens, UniProt P01116, G12D, cells depend on it). In words: Ba/F3 KRAS^G12D cell proliferation assay (cell-titer Glo). The class given is cell-based. The note with it: cell growth inhibition, treated with the compounds for 3 days, read-out: BaF3_KRAS^G12D IC50.

The structures appear in SMILES notation.

Chain of recombinant human KRAS^G12D protein (P01116 1-188 isoform P01116-2 G12D): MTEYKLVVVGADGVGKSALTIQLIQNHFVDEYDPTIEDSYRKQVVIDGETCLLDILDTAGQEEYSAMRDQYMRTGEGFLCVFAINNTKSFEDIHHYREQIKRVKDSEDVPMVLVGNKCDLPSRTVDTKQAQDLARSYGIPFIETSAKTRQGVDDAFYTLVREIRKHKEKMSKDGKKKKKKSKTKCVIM
Chain of Ba/F3_KRAS^G12D cells (P01116 whole entry G12D): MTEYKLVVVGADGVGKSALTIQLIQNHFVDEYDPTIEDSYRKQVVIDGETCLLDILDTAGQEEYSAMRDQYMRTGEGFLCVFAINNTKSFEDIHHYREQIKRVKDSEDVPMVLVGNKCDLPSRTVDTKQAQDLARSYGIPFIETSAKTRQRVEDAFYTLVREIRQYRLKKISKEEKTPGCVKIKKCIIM

`Fc1cc2c(N3CC4CCC(C3)N4)nc(OCC34CCCN3CCC4)cc2nc1-c1cccc2ccccc12` [Compound 14]: in test [1], the Kd is over 5 µM. The GI50 at Ba/F3_KRAS^G12D cells was in the range of 500 to 5000 nM.

Consider `Clc1cccc2cccc(-c3nc(OCC45CCCN4CCC5)c4ccc(N5CCNCC5)nc4c3Br)c12` [Compound 83], for which the Kd in test [1] is over 5 µM. Moreover, on Ba/F3_KRAS^G12D cells, the GI50 is 500 to 5000 nM.

Take `Fc1c(-c2cccc3cccc(Cl)c23)ncc2c(N3CCNCC3)cc(OCC34CCCN3CCC4)nc12` [Compound 67]: the Kd in test [1] is over 5 µM. Also, the GI50 on Ba/F3_KRAS^G12D cells was in the range of 500 to 5000 nM.

For the molecule `CCc1cccc2c(F)c(O)cc(-c3nc(C)c4c(N5CC6CCC(C5)N6)nc(OC[C@@]56CCCN5C[C@H](F)C6)nc4c3F)c12` [Compound 124], in test [1], the Kd is at most 0.5 µM. Also, at Ba/F3_KRAS^G12D cells, the GI50 was under 500 nM.

Regarding `Oc1cc(-c2nc3cc(OC[C@@]45CCCN4C[C@H](F)C5)nc(N4CC5CCC(C4)N5)c3cc2Cl)c2c(Cl)cccc2c1` [Compound 43], the dissociation constant Kd in test [1] was over 5 µM. In addition, the GI50 on Ba/F3_KRAS^G12D cells fell in the range of 500 to 5000 nM.

As for `CN1CCC[C@H]1Cn1c(=O)nc(N2CCNCC2)c2cnc(-c3cccc4cccc(Cl)c34)c(F)c21` [Compound 35], the Kd in test [1] is over 5 µM. Moreover, the GI50 on Ba/F3_KRAS^G12D cells was over 5000 nM.

As to `Cc1nc(-c2cc(O)cc3cccc(Cl)c23)c(F)c2nc(OC[C@@]34CCCN3C[C@H](F)C4)nc(N3CC4CCC(C3)N4C)c12` [Compound 90], the equilibrium dissociation constant (Kd) in test [1] was 0.5 to 5 µM. At Ba/F3_KRAS^G12D cells, the GI50 is 500 to 5000 nM.

Turning to `Clc1cccc2cccc(-c3ncc4c(N5CC6CCC(C5)N6)nc(OCC56CCCN5CCC6)cc4n3)c12` [Compound 46], the Kd in test [1] was over 5 µM. Besides, the GI50 on Ba/F3_KRAS^G12D cells was in the range of 500 to 5000 nM.

Consider `Fc1c(-c2cccc3cccc(Cl)c23)ncc2c(OCC34CCCN3CCC4)cc(N3CCNCC3)nc12` [Compound 69], for which the Kd in test [1] was over 5 µM. At Ba/F3_KRAS^G12D cells, the GI50 lay in the range of 500 to 5000 nM.

With `N#Cc1c(-c2cccc3cccc(Cl)c23)nc(OCC23CCCN2CCC3)c2ccc(N3CCNCC3)nc12` [Compound 98], in test [1], the Kd was over 5 µM. In addition, the GI50 on Ba/F3_KRAS^G12D cells lay within 500 to 5000 nM.

Regarding `CN1CCC[C@H]1Cn1c(=O)nc(N2CC3CCC(C2)N3)c2cc(F)c(-c3cc(O)cc4cccc(Cl)c34)nc21` [Compound 41], the dissociation constant (Kd) in test [1] is over 5 µM. The GI50 on Ba/F3_KRAS^G12D cells was over 5000 nM.

Consider `C#Cc1c(F)ccc2cc(O)cc(-c3nc(OC)c4c(N5CC6CCC(C5)N6)nc(OC[C@@H]5CCCN5C)nc4c3F)c12` [Compound 160], for which the Kd in test [1] is at most 0.5 µM. Moreover, on Ba/F3_KRAS^G12D cells, the GI50 is under 500 nM.

As to `C#Cc1c(F)ccc2cc(O)cc(-c3nc(OC)c4c(N5CC6CCC(C5)N6)nc(OC[C@@]56CCCN5C[C@H](F)C6)nc4c3F)c12` [Compound 135], the dissociation constant Kd in test [1] is at most 0.5 µM. Further, on Ba/F3_KRAS^G12D cells, the GI50 is under 500 nM.

With `CN1CCC[C@@H]1COc1nc(-c2cccc3cccc(Cl)c23)c(F)c2nc(N3CCNCC3)ccc12` [Compound 53], the dissociation constant Kd in test [1] is over 5 µM. The GI50 at Ba/F3_KRAS^G12D cells was under 500 nM.

`Oc1cc(-c2nc(OC[C@@]34CCCN3C[C@H](F)C4)c3ccc(N4CC5CCC(C4)N5)nc3c2Br)c2c(Cl)cccc2c1` [Compound 101]: in test [1], the Kd is over 5 µM. The GI50 on Ba/F3_KRAS^G12D cells fell in the range of 500 to 5000 nM.

As to `CN1CCC[C@H]1Cn1c(=O)nc(N2CC3CCC(C2)N3)c2cc(F)c(-c3cc(O)cc4ccccc34)nc21` [Compound 39], the Kd in test [1] is over 5 µM. Besides, the GI50 on Ba/F3_KRAS^G12D cells was over 5000 nM.

For `CN(C)CCOc1cc2nc(-c3ccccc3F)c(F)cc2c(N2C3CCC2CNC3)n1` [Compound 49], the Kd in test [1] was over 5 µM. Further, the GI50 at Ba/F3_KRAS^G12D cells lay within 500 to 5000 nM.

Regarding `Cc1nc(-c2cc(O)cc3cccc(C#N)c23)c(F)c2nc(OC[C@@]34CCCN3C[C@H](F)C4)nc(N3CC4CCC(C3)N4)c12` [Compound 115], the Kd in test [1] is at most 0.5 µM. The GI50 at Ba/F3_KRAS^G12D cells was over 5000 nM.

On to `CCc1cccc2cc(O)cc(-c3ncc4c(N5CC6CCC(C5)N6)nc(OC[C@@]56CCCN5C[C@H](F)C6)c(Cl)c4n3)c12` [Compound 61], for which the Kd in test [1] is at most 0.5 µM. In addition, on Ba/F3_KRAS^G12D cells, the GI50 lay within 500 to 5000 nM.

In the case of `Oc1cc(-c2ncc3c(N4CCNCC4)nc(OC[C@@]45CCCN4C[C@H](F)C5)nc3c2F)c2c(Cl)cccc2c1` [Compound 72], the Kd in test [1] was at most 0.5 µM. Moreover, the GI50 on Ba/F3_KRAS^G12D cells is 500 to 5000 nM.

As to `CN(C)CCCOc1nc(N2CC3CCC(C2)N3)c2cnc(-c3cccc4ccccc34)nc2c1Cl` [Compound 25], the Kd in test [1] is over 5 µM. For the same molecule, the GI50 at Ba/F3_KRAS^G12D cells lay within 500 to 5000 nM.

As to `Fc1c(-c2cccc3cccc(Cl)c23)ncc2c(N3CC4CCC(C3)N4)nc(OCC34CCCN3CCC4)nc12` [Compound 6], in test [1], the dissociation constant Kd is at most 0.5 µM. Further, the GI50 on Ba/F3_KRAS^G12D cells is under 500 nM.

In the case of `CCc1c(F)ccc2cc(O)cc(-c3nc(C(F)F)c4c(N5CC6CCC(C5)N6)nc(OC[C@@]56CCCN5C[C@H](F)C6)nc4c3F)c12` [Compound 166], in test [1], the Kd is at most 0.5 µM. In addition, the GI50 on Ba/F3_KRAS^G12D cells is under 500 nM.

As to `C#Cc1c(F)ccc2cc(O)cc(-c3nc(Cl)c4c(N5CC6CCC(C5)N6)nc(OC[C@@]56CCCN5C[C@H](F)C6)nc4c3F)c12` [Compound 132], the Kd in test [1] was at most 0.5 µM. For the same molecule, the GI50 on Ba/F3_KRAS^G12D cells was under 500 nM.

`N#Cc1cccc2cc(O)cc(-c3ncc4c(N5CC6CCC(C5)N6)nc(OCC56CCCN5CCC6)nc4c3F)c12` [Compound 47]: the Kd in test [1] was at most 0.5 µM. Also, the GI50 at Ba/F3_KRAS^G12D cells was over 5000 nM.

`CCN1CCC(c2nc(OCC34CCCN3CCC4)nc3c(F)c(-c4cc(O)cc5cccc(Cl)c45)ncc23)CC1` [Compound 56]: the Kd in test [1] is over 5 µM. Further, the GI50 at Ba/F3_KRAS^G12D cells fell in the range of 500 to 5000 nM.

With `Cc1nc(-c2ccc(F)c3nc(N)sc23)c(F)c2nc(OC[C@@]34CCCN3C[C@H](F)C4)nc(N3CC4CCC(C3)N4)c12` [Compound 99], the Kd in test [1] is over 5 µM. In addition, on Ba/F3_KRAS^G12D cells, the GI50 lay in the range of 500 to 5000 nM.

Take `Oc1cc(-c2ncc3c(N4CC5CCC(C4)N5)nc(OCC45CCCN4CCC5)cc3n2)c2c(Cl)cccc2c1Cl` [Compound 59]: the Kd in test [1] was over 5 µM. Further, the GI50 at Ba/F3_KRAS^G12D cells was over 5000 nM.

In the case of `Nc1cccc(F)c1-c1ncc2c(N3CCNCC3)nc(OCC34CCCN3CCC4)cc2n1` [Compound 22], in test [1], the Kd was over 5 µM. Further, the GI50 on Ba/F3_KRAS^G12D cells is over 5000 nM.

Take `Oc1cc(-c2ncc3c(N4CC5CCC(C4)N5)nc(OC[C@@]45CCCN4C[C@H](F)C5)c(Cl)c3n2)c2ccccc2c1` [Compound 63]: the Kd in test [1] was over 5 µM. Further, the GI50 at Ba/F3_KRAS^G12D cells was in the range of 500 to 5000 nM.

Take `Nc1cccc(F)c1-c1nc2nc(OCC34CCCN3CCC4)nc(N3CC4CCC(C3)N4)c2cc1Cl` [Compound 11]: the Kd in test [1] was over 5 µM. Besides, the GI50 on Ba/F3_KRAS^G12D cells is over 5000 nM.

For the molecule `Oc1cc(-c2ncc3c(N4CC5CCC(C4)N5)nc(OC[C@@]45CCCN4C[C@H](F)C5)cc3n2)c2ccccc2c1` [Compound 62], in test [1], the Kd was over 5 µM. Besides, the GI50 on Ba/F3_KRAS^G12D cells is 500 to 5000 nM.

For `C#Cc1c(F)ccc2cc(O)cc(-c3nc(OC(C)C)c4c(N5CC6CCC(C5)N6)nc(OC[C@@H]5C[C@@H](F)CN5C)nc4c3F)c12` [Compound 197], the dissociation constant Kd in test [1] is at most 0.5 µM. Further, at Ba/F3_KRAS^G12D cells, the GI50 was under 500 nM.

As for `CN(C)CCOc1nc(N2CCNCC2)c2cc(F)c(-c3ccccc3F)nc2c1-c1cccnc1C1CC1` [Compound 24], the Kd in test [1] is over 5 µM. For the same molecule, on Ba/F3_KRAS^G12D cells, the GI50 lay within 500 to 5000 nM.

Consider `Oc1cc(-c2cc3nc(OC[C@@]45CCCN4C[C@H](F)C5)nc(N4CC5CCC(C4)N5)c3nn2)c2c(Cl)cccc2c1` [Compound 94], for which the Kd in test [1] is at most 0.5 µM. The GI50 at Ba/F3_KRAS^G12D cells was 500 to 5000 nM.

Turning to `C[C@H]1CNCCN1c1nc(OCCN(C)C)c(-c2cccnc2C2CC2)c2nc(-c3cccc4ccccc34)c(F)cc12` [Compound 29], the Kd in test [1] is over 5 µM. The GI50 on Ba/F3_KRAS^G12D cells fell in the range of 500 to 5000 nM.
